The nature of this series: recombinant barcode read abundance after kanamycin selection (control-corrected) (log10(CPM+1)); higher = more efficient recombination; sequences stand for … in AGTGCAGAGAAAATCGGCCAGTTTTCTCTGCCTGCAGTCCGCATGCCGT…ATTTATGCAGCGGACTGCCTTTCTCCCAAAGTGATAAACCGGACAGTATCATGGACCGGTTTTCCCGGTAATCCGTATTTGCAAGGTTGGTTTCACT; site = the 11-nt target. The gist of the method: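 Duplicate cultures were plated either on chloramphenicol/ampicillin LB agar, serving as control, or on chloramphenicol/ampicillin/kanamycin with 0.1 mM IPTG. These came from a pooled E. coli library co-electroporated with a donor plasmid, each member pairing a target with an IS621 bridge RNA target-binding loop. Recombination efficiency equals averaged, control-corrected counts per million of recombinant-junction barcodes. It is listed as log10(CPM+1).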

In the case of “GGGCGTGGTTGGGTTCTAACCTGTTGCCTAC [GGGCGTGCTAG_LTGcore_GT_RTGcore_GT] (site GGGCGTGCTAG) (LTG core: GT, RTG core: GT)”, the “recombinant barcode read abundance (log10)” value is 0.593. The value for “GGGCGTGTGTGGGTTCTAACCTGTTGCCTAG [GGGCGTGCTAG_LTGcore_TG_RTGcore_CT] (site GGGCGTGCTAG) (LTG core: TG, RTG core: CT)” was 0.228; that for “GGTGCCCAGTGGGTTCTAACCTGTTGCCGAG [GGTGCCCCTCG_LTGcore_AG_RTGcore_CT] (site GGTGCCCCTCG) (LTG core: AG, RTG core: CT)” was 0.202; that for “GGTGCCCCATGGGTTCTAACCTGTTGCCGAG [GGTGCCCCTCG_LTGcore_CA_RTGcore_CT] (site GGTGCCCCTCG) (LTG core: CA, RTG core: CT)” was 0.158. The value for “GGTGCCCCATGGGTTCTAACCTGTTGCCGTG [GGTGCCCCTCG_LTGcore_CA_RTGcore_CA] (site GGTGCCCCTCG) (LTG core: CA, RTG core: CA)” was 0.0735; that for “GGTGCCCCTTGGGTTCTAACCTGTTGCCGTA [GGTGCCCCTCG_LTGcore_CT_RTGcore_TA] (site GGTGCCCCTCG) (LTG core: CT, RTG core: TA)” was 0.258. The value for “GGTGCCCGATGGGTTCTAACCTGTTGCCGAG [GGTGCCCCTCG_LTGcore_GA_RTGcore_CT] (site GGTGCCCCTCG) (LTG core: GA, RTG core: CT)” was 0.0132. In the case of “GGTGCCCGCTGGGTTCTAACCTGTTGCCGAG [GGTGCCCCTCG_LTGcore_GC_RTGcore_CT] (site GGTGCCCCTCG) (LTG core: GC, RTG core: CT)”, the “recombinant barcode read abundance (log10)” value was found to be 0.0494. With “GGTGCCCGGTGGGTTCTAACCTGTTGCCGAG [GGTGCCCCTCG_LTGcore_GG_RTGcore_CT] (site GGTGCCCCTCG) (LTG core: GG, RTG core: CT)”, the “recombinant barcode read abundance (log10)” value was found to be 0.0774. The value for “GGTGCCCGTTGGGTTCTAACCTGTTGCCGAC [GGTGCCCCTCG_LTGcore_GT_RTGcore_GT] (site GGTGCCCCTCG) (LTG core: GT, RTG core: GT)” was 0.151; that for “GGTGCCCTATGGGTTCTAACCTGTTGCCGAG [GGTGCCCCTCG_LTGcore_TA_RTGcore_CT] (site GGTGCCCCTCG) (LTG core: TA, RTG core: CT)” was 0.122; that for “GGTGCCCTCTGGGTTCTAACCTGTTGCCGGA [GGTGCCCCTCG_LTGcore_TC_RTGcore_TC] (site GGTGCCCCTCG) (LTG core: TC, RTG core: TC)” was 0.0162.

In the case of “GGTGCCCTGTGGGTTCTAACCTGTTGCCGCA [GGTGCCCCTCG_LTGcore_TG_RTGcore_TG] (site GGTGCCCCTCG) (LTG core: TG, RTG core: TG)”, the “recombinant barcode read abundance (log10)” value worked out at 0.15. As to “GGTGCCCTTTGGGTTCTAACCTGTTGCCGAG [GGTGCCCCTCG_LTGcore_TT_RTGcore_CT] (site GGTGCCCCTCG) (LTG core: TT, RTG core: CT)”, the “recombinant barcode read abundance (log10)” value worked out at 0.0486. The value for “GTCGCCCATTGGGTTCTAACCTGTTGCTAAG [GTCGCCCCTTA_LTGcore_AT_RTGcore_CT] (site GTCGCCCCTTA) (LTG core: AT, RTG core: CT)” was 0.926; that for “GTCGCCCCCTGGGTTCTAACCTGTTGCTAGG [GTCGCCCCTTA_LTGcore_CC_RTGcore_CC] (site GTCGCCCCTTA) (LTG core: CC, RTG core: CC)” was 0.416. The value for “GTCGCCCCTTGGGTTCTAACCTGTTGCTAAA [GTCGCCCCTTA_LTGcore_CT_RTGcore_TT] (site GTCGCCCCTTA) (LTG core: CT, RTG core: TT)” was 0.194; that for “GTCGCCCCTTGGGTTCTAACCTGTTGCTACA [GTCGCCCCTTA_LTGcore_CT_RTGcore_TG] (site GTCGCCCCTTA) (LTG core: CT, RTG core: TG)” was 0.151; that for “GTCGCCCCTTGGGTTCTAACCTGTTGCTACC [GTCGCCCCTTA_LTGcore_CT_RTGcore_GG] (site GTCGCCCCTTA) (LTG core: CT, RTG core: GG)” was 0.487. The value for “GTCGCCCCTTGGGTTCTAACCTGTTGCTACT [GTCGCCCCTTA_LTGcore_CT_RTGcore_AG] (site GTCGCCCCTTA) (LTG core: CT, RTG core: AG)” was 0.19. Regarding “GTCGCCCCTTGGGTTCTAACCTGTTGCTAGG [GTCGCCCCTTA_LTGcore_CT_RTGcore_CC] (site GTCGCCCCTTA) (LTG core: CT, RTG core: CC)”, the “recombinant barcode read abundance (log10)” value came to 0.238. With “GTCGCCCGCTGGGTTCTAACCTGTTGCTAAG [GTCGCCCCTTA_LTGcore_GC_RTGcore_CT] (site GTCGCCCCTTA) (LTG core: GC, RTG core: CT)”, the “recombinant barcode read abundance (log10)” value worked out at 0.224. For the sequence “GTCGCCCTGTGGGTTCTAACCTGTTGCTACA [GTCGCCCCTTA_LTGcore_TG_RTGcore_TG] (site GTCGCCCCTTA) (LTG core: TG, RTG core: TG)”, the “recombinant barcode read abundance (log10)” value was determined as 0.51. Turning to “TAAGAATAGTGGGTTCTAACCTGTTGCCTAG [TAAGAATCTAG_LTGcore_AG_RTGcore_CT] (site TAAGAATCTAG) (LTG core: AG, RTG core: CT)”, the “recombinant barcode read abundance (log10)” value came to 0.079. The value for “TAAGAATAGTGGGTTCTAACCTGTTGCCTCT [TAAGAATCTAG_LTGcore_AG_RTGcore_AG] (site TAAGAATCTAG) (LTG core: AG, RTG core: AG)” was 0.0922; that for “TAAGAATCTTGGGTTCTAACCTGTTGCCTAA [TAAGAATCTAG_LTGcore_CT_RTGcore_TT] (site TAAGAATCTAG) (LTG core: CT, RTG core: TT)” was 0.175; that for “TAAGAATCTTGGGTTCTAACCTGTTGCCTGC [TAAGAATCTAG_LTGcore_CT_RTGcore_GC] (site TAAGAATCTAG) (LTG core: CT, RTG core: GC)” was 0.359. For “TAAGAATGCTGGGTTCTAACCTGTTGCCTAG [TAAGAATCTAG_LTGcore_GC_RTGcore_CT] (site TAAGAATCTAG) (LTG core: GC, RTG core: CT)”, the “recombinant barcode read abundance (log10)” value amounted to 0.216. Regarding “TAAGAATGGTGGGTTCTAACCTGTTGCCTAG [TAAGAATCTAG_LTGcore_GG_RTGcore_CT] (site TAAGAATCTAG) (LTG core: GG, RTG core: CT)”, the “recombinant barcode read abundance (log10)” value was 0.0162.

As for “TAAGAATTATGGGTTCTAACCTGTTGCCTAG [TAAGAATCTAG_LTGcore_TA_RTGcore_CT] (site TAAGAATCTAG) (LTG core: TA, RTG core: CT)”, the “recombinant barcode read abundance (log10)” value came out at 0. For “TAAGAATTCTGGGTTCTAACCTGTTGCCTAG [TAAGAATCTAG_LTGcore_TC_RTGcore_CT] (site TAAGAATCTAG) (LTG core: TC, RTG core: CT)”, the “recombinant barcode read abundance (log10)” value is 0.0977. With “TAAGAATTTTGGGTTCTAACCTGTTGCCTAG [TAAGAATCTAG_LTGcore_TT_RTGcore_CT] (site TAAGAATCTAG) (LTG core: TT, RTG core: CT)”, the “recombinant barcode read abundance (log10)” value was 0.0485.

Source of the values: the supplement of paper PMC11208160.
